# Data published in PubChem BioAssay AID463204 (Broad Institute, 2010).
# The source made the active and inactive calls.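 Rule for the calls: active = AC50 no more than ten times the top concentration tested, that is within one log above it; inconclusive = flat curve fit with activity between 30% and 70%, or invalid poor fit; inactive = AC50 beyond ten times the top tested dose.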
# Test system: S. cerevisiae Mot1-301 ts growth rescue, BacTiter-Glo ATP luminescence
# Experiment: restored Mot1-301 yeast growth at 38.5C – whole organism, S. cerevisiae, Mot1-301 ts mutant, luminescence, dose retest, SUMOylation pathway inhibitor project, confirmation (AID 463204);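 note: growth at restrictive 38.5 degrees C of Mot1-301 OY566 strain; actives raise luminescence by restoring growth of the ts mutant at high temperature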
row,SMILES,AC50
1,C=C1C2C[C@@]3([C@@H]1O)[C@@H](C[C@@H]2O)[C@@]12C4[C@@H]3C[C@@H]1[C@@](C)(CC[C@@H]2O)CN4CC,> 42 µM (inactive)
2,COc1ccc(N2CCN(CCCNC(=O)C(=O)c3c(C)[nH]c4ccccc34)CC2)cc1,> 21 µM (inactive)
3,CC(C)c1cccc(OCCCCN(C)C)c1,> 42 µM (inactive)
4,CC/C(=N\Nc1ccc([N+](=O)[O-])cc1)c1ccccc1,> 42 µM (inactive)
5,NC(=O)NC(=O)COC(=O)/C=C/c1cccs1,> 42 µM (inactive)
6,CC1c2cc3c(cc2CCN1CC(=O)Nc1ccccc1)OCCCO3 (stereo not given),> 42 µM (inactive)
7,CCN(CC)C(=O)CSc1nnc(CNc2ccc(F)cc2)n1Cc1ccco1,> 42 µM (inactive)
8,Nc1ccc(NC(=O)c2ccco2)c(Cl)c1,> 42 µM (inactive)
9,O=C1CN(C(=O)COC(=O)CCNS(=O)(=O)c2ccc(Cl)cc2)c2ccccc2N1,> 42 µM (inactive)
10,CN(CC(=O)N1CCc2[nH]c3ccc(F)cc3c2C1)CC1OCCO1,> 42 µM (inactive)
11,COc1ccc(NC(=O)c2ccc(COc3ccccc3OC)o2)cc1OC,> 42 µM (inactive)
12,CS(=O)(=O)N1CCCC(C(=O)NCc2ccco2)C1 (stereo not given),> 42 µM (inactive)
13,CCCCCC(=O)Nc1nnn(CCC)n1,> 42 µM (inactive)
14,CCOc1ccc(Br)cc1S(=O)(=O)N1CCC(C(N)=O)CC1,> 42 µM (inactive)
15,O=S(=O)(NCC1CCCO1)c1cc(Cl)ccc1Br (stereo not given),> 42 µM (inactive)
16,Cc1c(NC(C)c2cc(Cl)ccc2O)c(=O)n(-c2ccccc2)n1C (stereo not given),> 42 µM (inactive)
17,COc1ccc(OCC(O)CN2C(=O)NC(C)(C)C2=O)cc1 (stereo not given),> 42 µM (inactive)
18,COc1ccc(-c2nc3c(c(SCC(=O)N4CCOCC4)n2)Cc2c(CO)cnc(C)c2O3)cc1,> 42 µM (inactive)
19,COc1ccc2c(c1)[C@H]1[C@H](CO2)[C@H](c2ccccc2)[C@]2(C)C(=O)Nc3ccc(F)cc3C(=O)N12,5.38 µM
20,CCOC(=O)C1=C(C)Nc2ncnn2C1/C=C/c1ccccc1 (stereo not given),> 42 µM (inactive)
21,CC(N=C(NC#N)Nc1ccncc1)C(C)(C)C (stereo not given),> 42 µM (inactive)
22,CC(C)(C)c1ccc(C(=O)NCCC(=O)N2CCN(c3ncccn3)CC2)cc1,> 42 µM (inactive)
23,O=C(Nc1ccccc1F)C1CCN(C(=O)Cc2ccccc2)CC1,> 42 µM (inactive)
24,C/C=C/C(=O)N1c2ccc(C)cc2C(C)=CC1(C)C,> 42 µM (inactive)
25,Cc1ccc(SC[C@H](C)CN2CC[C@H](C)CCC2=O)cc1,> 42 µM (inactive)

row,SMILES,AC50
1,CCCCCCCCCCOC(=O)Cn1c(COc2ccc(OC)cc2)[n+](C)c2ccccc21,6.72 µM
2,O=C(O)C1C2CCC(O2)C1C(=O)NCCC1=CCCCC1 (stereo not given),> 42 µM (inactive)
3,O=C(Nc1ccc(F)cc1)c1ccc(CSc2ccccc2)o1,> 42 µM (inactive)
4,COC(=O)c1ccccc1NC(=O)CSc1nnnn1CC(=O)O,> 42 µM (inactive)
5,O=S(=O)(c1cccc(-c2nnco2)c1)N1CCCC1,> 42 µM (inactive)
6,Cc1ccc(NC(=O)CN(C)C(=O)c2cccc(Br)c2)cc1,> 42 µM (inactive)
7,CCOC(=O)C1(CCOc2ccccc2)CCN(Cc2cccc(OC)c2O)CC1,> 42 µM (inactive)
8,Cc1cc(Br)ccc1NC(=O)c1cnc(N2CCN(c3ccccn3)CC2)c2ccccc12,> 42 µM (inactive)
9,Nc1ccc(S(=O)(=O)NNC(=O)C(=O)NNc2ccccc2)cc1,> 42 µM (inactive)
10,Cn1c(O)c(C(c2ccccn2)c2c(O)n(C)c(=S)n(C)c2=O)c(=O)n(C)c1=S,> 42 µM (inactive)
11,CC(C)Cc1nc(N2CCOCC2)c(C#N)c2c1CCC2,> 42 µM (inactive)
12,O=C(O)COc1ccc(Br)cc1/C=N\Nc1ccccn1,> 42 µM (inactive)
13,O=C(NCc1ccccc1Cl)c1ccc2c(c1)OCO2,30.4 µM
14,CCCCC(O)(CCCC)C(=O)NN(C(=O)OC)c1ccc(C)cc1,> 42 µM (inactive)
15,CC(C)(C)c1ccc(C(=O)COC(=O)CN2C(=O)NC3(CCCC3)C2=O)cc1,> 42 µM (inactive)
16,Cc1ccccc1Nc1c([N+](=O)[O-])ccc2c1=NC1(CCCCC1)N=2,> 42 µM (inactive)
17,CC1(C)CCC(=O)N2CC[C@H]3C[C@H](OC(=O)Nc4ccc(Br)cc4)C[C@@H]1[C@H]32,> 42 µM (inactive)
18,O=C(CSc1nc(=O)n2ccccc2n1)N1CCN(c2ccccc2)CC1,> 42 µM (inactive)
19,COc1cc(C(=O)N/N=C/c2ccccn2)cc(OC)c1OC,> 42 µM (inactive)
20,Cc1ccc(S(=O)(=O)CCC(=O)OCC(=O)N(C)C2CCS(=O)(=O)C2)cc1 (stereo not given),> 42 µM (inactive)
21,Cc1cccc(NS(=O)(=O)c2ccc3[nH]c(=O)cc(C(=O)O)c3c2)c1,> 21 µM (inactive)
22,NS(=O)(=O)c1ccc(CCNC(=O)c2ccc([N+](=O)[O-])s2)cc1,> 42 µM (inactive)
23,O=[N+]([O-])c1cncc([N+](=O)[O-])c1Nc1ccccc1Cl,9.62 µM
24,CN(C)S(=O)(=O)N1CCc2ccccc2C1,> 42 µM (inactive)
25,O=C(COc1cnc2ccccc2n1)NCCC1=CCCCC1,> 42 µM (inactive)

row,SMILES,AC50
1,O=C(c1ccc(OC2CCN(CCc3ccccc3)CC2)cc1)N1CCCC1,> 42 µM (inactive)
2,CCC1CCCCN1CCCNC(=O)C1CCC(CNS(=O)(=O)c2c(C)cc(C)cc2C)CC1 (stereo not given),> 42 µM (inactive)
3,O=C(c1cnn2c(C(F)(F)F)cc(-c3ccco3)nc12)N1CCCc2ccccc21,> 42 µM (inactive)
4,Cc1ccc(C)c(NC(=O)COC(=O)c2ccc3c(c2)OCO3)c1,> 42 µM (inactive)
5,COc1ccc(S(=O)(=O)N2CCN(c3ccc(F)cc3)CC2)cc1C(=O)N1CCOCC1,> 42 µM (inactive)
6,Cc1cnc(NC(=O)CN2CCN(c3ccccc3F)CC2)s1,> 42 µM (inactive)
7,CCCCn1c(N)c(N(CCOC)C(=O)c2cnccn2)c(=O)[nH]c1=O,> 42 µM (inactive)
8,Cc1ccc(S(=O)(=O)N2CCN(C(=O)CSc3nc(N)cc(=O)[nH]3)CC2)c(C)c1,> 42 µM (inactive)
9,CCCC(=O)NC(C)c1nc2ccccc2[nH]1 (stereo not given),> 42 µM (inactive)
10,CN(C(=O)CSc1nnc(-c2cccc(F)c2)n1N)C1CCS(=O)(=O)C1 (stereo not given),> 42 µM (inactive)
11,CCOc1ccc(-c2c(C(=O)N/N=C/c3ccncc3)nnn2-c2nonc2N)cc1,> 42 µM (inactive)
12,Cc1nc(NCCN2CCOCC2)c2nnn(Cc3c(F)cccc3Cl)c2n1,> 42 µM (inactive)
13,O=C(Nc1nnc(COc2ccc(F)cc2)s1)c1cccs1,> 42 µM (inactive)
14,O=C(COc1ccc([N+](=O)[O-])cc1)Nc1ccc(C(=O)NCc2cccnc2)cc1,> 42 µM (inactive)
15,O=C(CN1CCN(C(=O)c2ccccc2)CC1)Nc1ncc(Br)cc1Br,> 42 µM (inactive)
16,CCC(=O)c1c[nH]c(C(=O)NCCCn2ccnc2)c1,> 42 µM (inactive)
17,O=C(CCC(=O)OC(C(=O)c1ccccc1)c1ccccc1)Nc1ccccc1 (stereo not given),> 21 µM (inactive)
18,CCc1ccc(-c2nc(SCC(=O)N3CCOCC3)n[nH]2)cc1,> 42 µM (inactive)
19,CSCCc1nc(SCC(=O)Nc2nnc(C)s2)[nH]c1C,> 42 µM (inactive)
20,O=Nc1c(-c2cccc([N+](=O)[O-])c2)nc2ncccn12,4.09 µM
21,O=C1CN(C(=O)COC(=O)c2ccccc2NCc2ccco2)c2ccccc2N1,> 42 µM (inactive)
22,Cc1ccc(O)c(C(=O)CC(=O)c2cccc(F)c2)c1,20.7 µM
23,N#CC1=C(N)Nc2ncnn2C1c1ccc([N+](=O)[O-])cc1 (stereo not given),> 42 µM (inactive)
24,Cc1sc(NC(=O)c2ccc(Br)s2)c(C(N)=O)c1C,> 42 µM (inactive)
25,O=C(O)c1ccc(/C=N/NC(=O)c2cc(-c3ccc4c5c(cccc35)CC4)n[nH]2)cc1,> 42 µM (inactive)

row,SMILES,AC50
1,CC(C)[C@H](NC(=O)C1(c2ccccc2)CCN(C(=O)OC(C)(C)C)CC1)C(=O)O,> 42 µM (inactive)
2,O=C(CN1CCN(Cc2ccc(F)cc2)CC1)NCc1ccccc1,> 42 µM (inactive)
3,Cc1cccc(OCC(O)CN2C(C)(C)CC(O)CC2(C)C)c1 (stereo not given),> 42 µM (inactive)
4,CCOc1ncccc1-c1nc(-c2cccs2)no1,> 42 µM (inactive)
5,CN(C)CC/C=C1\c2ccccc2Sc2ccc(Cl)cc21,> 42 µM (inactive)
6,Cc1nn(CCOc2ccccc2)c(=O)n1-c1ccccc1F,> 42 µM (inactive)
7,C[C@H]1CN=C(Nc2ccccc2)N1CCC1CCCC1,> 42 µM (inactive)
8,COc1ccc(/C=C/C(=O)NC(=S)Nc2ccccn2)cc1,> 42 µM (inactive)
9,CCOCCn1c(-c2ccc(OC)cc2)nc2ccccc21,> 42 µM (inactive)
10,O=C(c1ccc([N+](=O)[O-])cc1)N1CCN(c2ncc(Br)cn2)CC1,> 42 µM (inactive)
11,Cc1cccc(N2CCN(C(=O)CN3C(=O)NC(C)(C)C3=O)CC2)c1C,> 42 µM (inactive)
12,Cc1ccc(NC(=O)C(CC(C)C)NC(=O)C2CCC(C)CC2)nc1 (stereo not given),> 42 µM (inactive)
13,CN1CCN(C(=O)CCN2C(=O)/C(=C/c3ccccc3Cl)SC2=S)CC1,> 42 µM (inactive)
14,COCCN1C=C(C(=O)OC)C(c2cc3c(cc2Br)OCO3)C(C(=O)OC)=C1,> 42 µM (inactive)
15,O=C(CSc1ccc(Br)cc1)Nc1ccccc1N1CCOCC1,> 42 µM (inactive)
16,Cc1cccc(C)c1NC(=O)C1(N(Cc2ccco2)C(=O)CC2NC(=O)NC2=O)CCCCC1 (stereo not given),> 42 µM (inactive)
17,CCc1ccccc1NC(=S)NNC(=O)c1ccccc1Cl,> 42 µM (inactive)
18,CCOc1ccccc1N(C(=O)c1snc(C(N)=O)c1N)C(CC)C(=O)NC1CCCC1 (stereo not given),41.7 µM
19,CC(C)(C)NC(=O)C1Cc2ccccc2CN1S(=O)(=O)c1ccc(F)cc1 (stereo not given),> 42 µM (inactive)
20,CN(C)c1ccc(/C=C/c2cccc[n+]2[O-])cc1,> 42 µM (inactive)
21,CCCCC(=O)NC(=S)Nc1cccc(C(=O)O)c1,> 42 µM (inactive)
22,CNS(=O)(=O)c1cccc(C(=O)OCC(=O)Nc2ccc(OC)cc2[N+](=O)[O-])c1,> 42 µM (inactive)
23,O=C(O)CN(c1ccccn1)S(=O)(=O)c1ccc(Cl)cc1,> 42 µM (inactive)
24,O=C(NC(=S)NNC(=O)c1ccccc1O)c1cccc([N+](=O)[O-])c1,> 42 µM (inactive)
25,CCOC(=O)C1CCN(CC(O)COCc2ccccc2)CC1 (stereo not given),> 42 µM (inactive)
